Reference: ChEMBL document CHEMBL1130605, “Conformationally restricted carbamate inhibitors of horse serum butyrylcholinesterase” (Bioorg Med Chem Lett, 1998)
pIC50, pKi: −log10 of the molar value.

Columns and labels:
Butyrylcholinesterase [1] = target: T1, Butyrylcholinesterase (Equus caballus, UniProt Q9N1N9); test: Tested for kinetic data for the horse serum Butyrylcholinesterase-Catalyzed Hydrolysis of Butyrylthiocholine; 10e-3/M. sec
[2] = target: Butyrylcholinesterase (Equus caballus) (UniProt Q9N1N9)
Butyrylcholinesterase [3] = target: T1, Butyrylcholinesterase; test: Compound was evaluated for irreversible inhibition of Horse serum Butyrylcholinesterase
Butyrylcholinesterase [4] = target: T1, Butyrylcholinesterase; test: Compound was evaluated for its inhibitory concentration against Horse serum Butyrylcholinesterase

For `CCCCNC(=O)OC1C2CC3CC(C2)CC1C3` (centres undefined), which Ki (Butyrylcholinesterase [1]) is on record?
The Ki was 1.8 10e3* M-1 s-1.

And the k2 [2]?
Its k2 is 1.4 10e-3 s-1.

And the pKi (Butyrylcholinesterase [3])?
Its pKi is 6.10.

For `CCCCNC(=O)OC12CC3CC(CC(C3)C1)C2`, which Ki (Butyrylcholinesterase [1]) is on record?
Its Ki is 1.9 10e3* M-1 s-1.

What about the k2 [2] of the same molecule?
The k2 was 1.5 10e-3 s-1.

What about the pKi (Butyrylcholinesterase [3]) of the same molecule?
The pKi was 6.10.

With `CCCCNC(=O)OC1C[C@H]2CCC1C2` (stereo in doubt; 1) [listing 1 of 2 here] as the molecule, how does the Ki (Butyrylcholinesterase [1]) read?
Its Ki is 110 10e3* M-1 s-1.

What about the pKi (Butyrylcholinesterase [3]) of the same molecule?
The pKi was 7.70.

`CCCCNC(=O)OC1C[C@H]2CCC1C2` (stereo in doubt; 1) [listing 2 of 2 here] was tested. Which k2 [2] did it give?
Its k2 is 2.2 10e-3 s-1.

For `CCCCNC(=O)OC1C[C@H]2CCC1C2` (stereo in doubt; 2) [listing 1 of 2 here], which Ki (Butyrylcholinesterase [1]) is on record?
Its Ki is 2.2 10e3* M-1 s-1.

And the pKi (Butyrylcholinesterase [3])?
The pKi was 6.38.

How did the k2 [2] turn out when `CCCCNC(=O)OC1C[C@H]2CCC1C2` (stereo in doubt; 2) [listing 2 of 2 here] was run?
The k2 was 0.92 10e-3 s-1.

How did the pKi (Butyrylcholinesterase [3]) turn out when `CC[N+](C)(C)c1cccc(O)c1` [EDROPHONIUM BROMIDE] was run?
The pKi was 3.47.

How did the pIC50 (Butyrylcholinesterase [4]) turn out when `CNC(=O)Oc1ccc2c(c1)[C@]1(C)CCN(C)[C@@H]1N2C` [PHYSOSTIGMINE] was run?
The pIC50 was 7.80.
